This data set relates to Salmonella typhimurium auxotroph strains TA98 and TA100. Nature of the data set: Ames assay (mutagenicity test). As to conditions: TA98 and TA100, with or without S9. It is filed as cell-based. The procedure: The test strains adopted in the mutagenicity test were Salmonella typhimurium auxotroph strains TA98 and TA100. The test was performed using a 6-well plate in the presence or absence of the S9 metabolic activation system, with both a solvent control group (DMSO) and a positive control group set, with 2 replicate wells per treatment group. Compounds were set at 5 concentrations ranging from 62.5 μg/well to 1000.0 μg/well (equivalent to 312.5 μg/dish to 5000.0 μg/dish in the standard Ames assay). The plate was incubated at 37° C. for 48-72 h, and then bacterial toxicity was measured in each well and the number of mutant colonies in each well was counted. When the number of revertant colonies of the test compound groups is more than twice the number of spontaneous revertant colonies of the solvent control group in a reproducible and dose-dependent manner, the test substance is considered to have positive mutagenicity for the test strain.
In this test, dimethyl sulfoxide (DMSO) was used to dissolve the test substance and served as a negative (solvent) control. In the S9-free group (−S9), 2-nitrofluorene and sodium azide were used as positive controls for TA98 and TA100, respectively; in the S9 group (+S9), 2-aminofluorene was used as a positive control for TA98 and TA100.
Background: The Ames test detects mutagens through reverse mutation in bacteria.

Consider `O=C(N[C@H]1[C@H](N2Cc3ccc(-c4nnc(C(F)F)o4)cc3S2(=O)=O)CCCC1(F)F)C(F)F` [Compound 61], for which the “Pollutant mutagenicity test results” value is listed as “Negative”.
